# Measured values as given in US7259140B2, “Heparin-binding peptides and uses thereof” (Thomas Jefferson University, priority 2003, dated 2007).
# Ends that are not written are not given here.
# Tests used:
# [1] = Hemodynamic effects in rats after administration of the LMWH Lovenox; conditions: in the presence of LMWH Lovenox
# Procedure: Next, experiments were performed in which the animals were treated with the peptides after the administration of the LMWH Lovenox®, as would happen in the clinical situation, because binding of peptides to LMWH would be expected to reduce the effects of the peptides on hemodynamic function.
# [2] = test system: Anti-Factor Xa Activity of the Non-Heparin Glycosaminoglycan Orgaran ®; assay: Anti-Factor Xa assay: neutralization of Orgaran in citrate or plasma in vitro; assay type: biochemical, human
# Procedure: The ability of peptides such as (ARKKAAKA)3VLVLVLVL (SEQ ID NO:5) to neutralize the anti-Factor Xa activity of UFH and LMWH in vitro was tested using the Stachrom Heparin kit (Diagnostica Stago), a standard hematology laboratory assay used to measure the anti-Factor Xa activity of heparin. The assay was performed using the low molecular weight heparin enoxaparin sodium (Lovenox®, Aventis Pharmaceuticals, Inc.), unfractionated heparin (UFH), or the non-heparin glycosaminoglycan danaparoid sodium (Orgaran®, Organon Inc., West Orange, N.J.) in 0.32% citrate or in plasma anticoagulated with 0.32% citrate. Enoxaparin is commonly used clinically as a low molecular weight heparin (LMWH). Danaparoid is commonly used clinically as a non-heparin glycosaminoglycan anticoagulant. Currently, the only FDA approved drug to target UFH is protamine, which is not effective in vivo against LMWH or a non-heparin glycosaminoglycan such as danaparoid. Buffer and ATIII are added to form the heparin/ATIII complex, peptide is added, then Factor Xa, reporter dye substrate for Factor Xa activity, and stop solution, and the dye concentration is read at 405 nm. The absorbance of the dye increases with increasing Factor Xa activity, and thus is inversely proportional to the heparin (anti-Factor Xa activity) concentration. Peptides were tested in plasma obtained from three volunteers (A, B, and C). Platelet function inhibitors PG12 and theophylline were added to the blood immediately upon collection. […]
# platelets = assay: Platelet aggregation with aggregation-inducing agents; assay type: cell-based, human; conditions: 12 μg/ml; Lovenox 0.5 U/ml; collagen, ADP, ristocetin, epinephrine, SFFLRN, A23187
# Procedure: Plasma from six volunteers was tested with various aggregation inducing agents, at several concentrations of each agent, and with six different peptides of the invention. The effect of heparin-binding peptides of the invention on platelet aggregation was determined using standard procedures as previously described. The six peptides which were synthesized and tested were: (ARKKAAKA)4 (SEQ ID NO:31), ARKKAAKA(A16)ARKKAAKA (SEQ ID NO:30), (ARKKAAKA)3ARKKCAKA (SEQ ID NO:33), (ARKKAAKA)3VLVLVLVL (SEQ ID NO:5), C(ARKKAAKA)4C (SEQ ID NO:34), and (AKKARA)6 (SEQ ID NO:32).
# The aggregation-inducing agents tested were: collagen, adenosine diphosphate (ADP), ristocetin, epinephrine, the thrombin receptor peptide SFFLRN, and calcium ionophore A23187. Platelets were subjected to protamine, or to SEQ ID NOS:31, 33, 30, 5, 34, or 32 at 12 μg/ml, and Lovenox® at 0.5 U/ml. Platelet aggregation in response to agonists was monitored and percent aggregation was determined over a five minute interval.
# The agonist was added after equilibration of the platelets for one minute.
# [3] = test system: anti-Factor Xa Activity of the Low Molecular Weight Heparin Lovenox ®; assay: Anti-Factor Xa assay (Stachrom Heparin kit): neutralization of Lovenox in citrate or plasma in vitro; assay type: biochemical, human; conditions: for Lovenox ® Neutralized: Lovenox 0.7 U/ml
# Procedure, shortened: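 Chromogenic anti-Factor Xa kit run with UFH, enoxaparin (Lovenox) or danaparoid (Orgaran) in 0.32% citrate or citrated plasma from three volunteers. Heparin/ATIII complex formed, peptide added, then Factor Xa and dye substrate; absorbance at 405 nm, inversely proportional to remaining anti-Factor Xa activity.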
sequence,measurement,setting,value
ARKKAAKAARKKAAKAARKKAAKAVLVLVLVL [(ARKKAAKA)3VLVLVLVL],effect on blood pressure and heart rate / toxicity,[1],"no, or minimal, adverse effects on blood pressure or heart rate"
same,Orgaran Neutralized,"[2]; 1 μg/ml Peptide, A Plasma",0.028 ± 0.016 U/ml
same,Orgaran Neutralized,"[2]; 1 μg/ml Peptide, B Plasma",0.026 ± 0.011 U/ml
same,Orgaran Neutralized,"[2]; 1 μg/ml Peptide, C Plasma",0.035 ± 0.010 U/ml
same,Orgaran Neutralized,"[2]; 1 μg/ml Peptide, Citrate",0.078 ± 0.031 U/ml
same,Orgaran Neutralized,"[2]; 6 μg/ml Peptide, A Plasma",0.050 ± 0.026 U/ml
same,Orgaran Neutralized,"[2]; 6 μg/ml Peptide, B Plasma",0.049 ± 0.021 U/ml
same,Orgaran Neutralized,"[2]; 6 μg/ml Peptide, C Plasma",0.075 ± 0.005 U/ml
same,Orgaran Neutralized,"[2]; 6 μg/ml Peptide, Citrate",0.114 ± 0.007 U/ml
same,Orgaran Neutralized,"[2]; 12 μg/ml Peptide, A Plasma",0.109 ± 0.019 U/ml
same,Orgaran Neutralized,"[2]; 12 μg/ml Peptide, B Plasma",0.083 ± 0.016 U/ml
same,Orgaran Neutralized,"[2]; 12 μg/ml Peptide, C Plasma",0.114 ± 0.010 U/ml
same,Orgaran Neutralized,"[2]; 12 μg/ml Peptide, Citrate",0.227 ± 0.017 U/ml
same,Orgaran Neutralized,"[2]; 60 μg/ml Peptide, A Plasma",0.281 ± 0.036 U/ml
same,Orgaran Neutralized,"[2]; 60 μg/ml Peptide, B Plasma",0.258 ± 0.013 U/ml
same,Orgaran Neutralized,"[2]; 60 μg/ml Peptide, C Plasma",0.248 ± 0.020 U/ml
same,Orgaran Neutralized,"[2]; 60 μg/ml Peptide, Citrate",0.380 ± 0.021 U/ml
same,Orgaran Neutralized,"[2]; 120 μg/ml Peptide, A Plasma",0.366 ± 0.010 U/ml
same,Orgaran Neutralized,"[2]; 120 μg/ml Peptide, B Plasma",0.320 ± 0.010 U/ml
same,Orgaran Neutralized,"[2]; 120 μg/ml Peptide, C Plasma",0.296 ± 0.011 U/ml
same,Orgaran Neutralized,"[2]; 120 μg/ml Peptide, Citrate",0.345 ± 0.032 U/ml
same,effect on platelet aggregation,platelets,no significant inhibition or enhancement of aggregation
same,rank as neutralizing agent of Lovenox,[3],most effective neutralizing agents
same,Lovenox ® Neutralized,"[3]; 1 μg/ml Peptide, A Plasma",0.055 ± 0.041 U/ml
same,Lovenox ® Neutralized,"[3]; 1 μg/ml Peptide, B Plasma",0.035 ± 0.009 U/ml
same,Lovenox ® Neutralized,"[3]; 1 μg/ml Peptide, C Plasma",0.058 ± 0.054 U/ml
same,Lovenox ® Neutralized,"[3]; 1 μg/ml Peptide, Citrate",0.082 ± 0.027 U/ml
same,Lovenox ® Neutralized,"[3]; 6 μg/ml Peptide, A Plasma",0.292 ± 0.047 U/ml
same,Lovenox ® Neutralized,"[3]; 6 μg/ml Peptide, B Plasma",0.189 ± 0.066 U/ml
same,Lovenox ® Neutralized,"[3]; 6 μg/ml Peptide, C Plasma",0.202 ± 0.042 U/ml
same,Lovenox ® Neutralized,"[3]; 6 μg/ml Peptide, Citrate",0.288 ± 0.045 U/ml
same,Lovenox ® Neutralized,"[3]; 12 μg/ml Peptide, A Plasma",0.441 ± 0.058 U/ml
same,Lovenox ® Neutralized,"[3]; 12 μg/ml Peptide, B Plasma",0.376 ± 0.001 U/ml
same,Lovenox ® Neutralized,"[3]; 12 μg/ml Peptide, C Plasma",0.371 ± 0.031 U/ml
same,Lovenox ® Neutralized,"[3]; 12 μg/ml Peptide, Citrate",0.412 ± 0.035 U/ml
same,anti-Factor Xa activity of LMWH neutralized,"[3]; 12 μg/ml, plasma",about 0.4 U/ml
same,Lovenox ® Neutralized,"[3]; 60 μg/ml Peptide, A Plasma",0.588 ± 0.027 U/ml
same,Lovenox ® Neutralized,"[3]; 60 μg/ml Peptide, B Plasma",0.561 ± 0.035 U/ml
same,Lovenox ® Neutralized,"[3]; 60 μg/ml Peptide, C Plasma",0.532 ± 0.023 U/ml
same,Lovenox ® Neutralized,"[3]; 60 μg/ml Peptide, Citrate",0.441 ± 0.010 U/ml
same,Lovenox ® Neutralized,"[3]; 120 μg/ml Peptide, A Plasma",0.575 ± 0.057 U/ml
same,Lovenox ® Neutralized,"[3]; 120 μg/ml Peptide, B Plasma",0.480 ± 0.035 U/ml
same,Lovenox ® Neutralized,"[3]; 120 μg/ml Peptide, C Plasma",0.485 ± 0.022 U/ml
same,Lovenox ® Neutralized,"[3]; 120 μg/ml Peptide, Citrate",0.463 ± 0.029 U/ml
same,anti-LMWH effect in citrate compared with plasma,[3]; Table 2A,neutralize the same amount of Lovenox® in citrate and plasma
same,Lovenox/LMWH neutralization compared with protamine,"[3]; low concentrations, in the presence of plasma",more effective than protamine
